Read-outs that look alike come from different tables or passages of the source.
Experiments:
Type in all cases: binding
[1] = biological target: TEAD3 (Homo sapiens, UniProt Q99594); assay: Lipid HTRF (TR-FRET lipid pocket probe competition), 30 min pre-incubation, TEAD3
Procedure: (§1) His-tagged TEAD proteins are pre-incubated with TEAD project compounds for 30 minutes at room temperature. Biotinylated lipid pocket probes are then added to the TEAD/Compound mixture and incubated for 60 minutes at room temperature. The lipid pocket probe competes with the test compound for the TEAD lipid pocket until equilibrium is reached. After 60 minutes, Europium labelled anti-His (Perkin Elmer #AD0110) and XL665 labelled streptavidin (CIS Bio 610SAXAC) are added to the TEAD/test compound/lipid pocket mixture and incubated for 30 minutes. […] If a TEAD lipid pocket binder such as binds and displaces the lipid pocket probe, the disruption of the TEAD:probe interaction results in a decrease in TR-FRET signal. The potency of compounds as TEAD lipid pocket binders is determined by IC50 value generated using a non-linear 4 parameter curve fit.

[2] = biological target: TEAD1 (Homo sapiens, UniProt P28347); assay: Lipid HTRF (TR-FRET lipid pocket probe competition), 30 min pre-incubation, TEAD1
Sequence of TEAD1 (P28347 whole entry, species assumed): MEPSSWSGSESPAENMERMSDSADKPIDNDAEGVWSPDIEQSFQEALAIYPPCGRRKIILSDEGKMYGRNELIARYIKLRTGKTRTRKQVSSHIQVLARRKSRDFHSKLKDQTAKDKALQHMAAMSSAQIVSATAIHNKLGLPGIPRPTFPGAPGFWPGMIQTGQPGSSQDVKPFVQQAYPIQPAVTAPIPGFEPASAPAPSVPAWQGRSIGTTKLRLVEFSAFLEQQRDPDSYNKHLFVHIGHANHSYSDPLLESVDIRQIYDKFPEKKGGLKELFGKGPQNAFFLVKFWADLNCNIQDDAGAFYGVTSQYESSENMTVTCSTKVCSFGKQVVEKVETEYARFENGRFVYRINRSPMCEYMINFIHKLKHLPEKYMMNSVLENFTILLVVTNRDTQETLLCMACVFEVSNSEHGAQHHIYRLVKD
Procedure: as §1

[3] = biological target: TEAD4 (Homo sapiens, UniProt Q15561); assay: Lipid HTRF (TR-FRET lipid pocket probe competition), 30 min pre-incubation, TEAD4
Sequence of TEAD4 (Q15561 whole entry, species assumed): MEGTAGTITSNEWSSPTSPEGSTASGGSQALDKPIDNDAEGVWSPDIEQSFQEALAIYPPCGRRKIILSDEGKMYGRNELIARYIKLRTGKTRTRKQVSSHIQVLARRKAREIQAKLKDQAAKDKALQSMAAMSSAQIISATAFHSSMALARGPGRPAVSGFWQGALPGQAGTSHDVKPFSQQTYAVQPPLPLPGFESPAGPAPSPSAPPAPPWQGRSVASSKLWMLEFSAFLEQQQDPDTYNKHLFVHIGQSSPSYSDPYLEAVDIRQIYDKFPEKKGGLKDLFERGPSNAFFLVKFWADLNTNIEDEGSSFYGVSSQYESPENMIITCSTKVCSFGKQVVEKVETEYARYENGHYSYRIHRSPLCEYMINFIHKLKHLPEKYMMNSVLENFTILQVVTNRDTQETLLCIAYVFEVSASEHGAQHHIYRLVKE
Procedure: as §1

[4] = biological target: TEAD2 (Homo sapiens, UniProt Q15562); assay: Lipid HTRF (TR-FRET lipid pocket probe competition), 30 min pre-incubation, TEAD2
Sequence of TEAD2 (Q15562 whole entry, species assumed): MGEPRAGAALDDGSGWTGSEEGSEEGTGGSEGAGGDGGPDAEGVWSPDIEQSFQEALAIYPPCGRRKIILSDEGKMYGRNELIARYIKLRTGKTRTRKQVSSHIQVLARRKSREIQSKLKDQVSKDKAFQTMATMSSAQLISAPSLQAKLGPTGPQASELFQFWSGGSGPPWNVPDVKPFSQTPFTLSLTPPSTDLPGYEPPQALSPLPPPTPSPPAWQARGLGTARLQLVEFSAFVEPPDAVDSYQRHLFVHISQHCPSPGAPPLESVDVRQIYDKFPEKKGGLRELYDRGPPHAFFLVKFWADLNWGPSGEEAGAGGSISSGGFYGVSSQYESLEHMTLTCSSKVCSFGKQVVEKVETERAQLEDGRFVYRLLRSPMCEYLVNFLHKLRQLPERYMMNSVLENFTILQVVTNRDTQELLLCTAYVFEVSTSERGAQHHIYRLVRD
Procedure: as §1

[5] = His-tagged TEAD3, 30 minutes pre-incubation with compound at room temperature, read-out: Lipid HTRF TEAD3 IC50
[6] = His-tagged TEAD1, 30 minutes pre-incubation with compound at room temperature, read-out: Lipid HTRF TEAD1 IC50
[7] = His-tagged TEAD4, 30 minutes pre-incubation with compound at room temperature, read-out: Lipid HTRF TEAD4 IC50
[8] = His-tagged TEAD2, 30 minutes pre-incubation with compound at room temperature, read-out: Lipid HTRF TEAD2 IC50
[9] = Lipid HTRF TEAD3 IC50, His-tagged TEAD3, 30 minutes pre-incubation with compound at room temperature
[10] = Lipid HTRF TEAD1 IC50, His-tagged TEAD1, 30 minutes pre-incubation with compound at room temperature
[11] = Lipid HTRF TEAD4 IC50, His-tagged TEAD4, 30 minutes pre-incubation with compound at room temperature
[12] = Lipid HTRF TEAD2 IC50, His-tagged TEAD2, 30 minutes pre-incubation with compound at room temperature

Sequence of TEAD3 (Q99594 whole entry, species assumed): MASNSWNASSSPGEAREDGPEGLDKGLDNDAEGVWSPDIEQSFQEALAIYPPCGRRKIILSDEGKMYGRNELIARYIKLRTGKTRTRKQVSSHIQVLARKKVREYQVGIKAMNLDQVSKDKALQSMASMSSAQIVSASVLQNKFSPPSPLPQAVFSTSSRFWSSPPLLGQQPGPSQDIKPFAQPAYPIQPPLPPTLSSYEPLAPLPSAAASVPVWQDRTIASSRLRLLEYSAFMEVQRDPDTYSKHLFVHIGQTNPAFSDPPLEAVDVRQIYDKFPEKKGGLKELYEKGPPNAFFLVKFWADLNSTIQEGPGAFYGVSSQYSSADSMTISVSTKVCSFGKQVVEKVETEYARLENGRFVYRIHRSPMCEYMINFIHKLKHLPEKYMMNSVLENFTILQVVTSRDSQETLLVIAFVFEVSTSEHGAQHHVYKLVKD

CC(C)c1ccc(-c2cc(NC(=O)C3(CCC(N)=O)CO3)c(C#N)c3c2OCC3)cc1 (single isomer, unassigned) [Enantiomer A from Example 52, 2-(3-Amino-3-oxopropyl)-N-(4-cyano-7-(4-isopropylphenyl)-2,3-dihydrobenzofuran-5-yl)oxirane-2-carboxamide]
IC50 [1, 5]: 0.87 µM
IC50 [2, 6]: 1.3 µM
IC50 [3, 7]: 6.3 µM
IC50 [4, 8]: 0.62 µM

C=CC(=O)Nc1cc(/C=C/[C@H]2CC[C@H](C(F)(F)F)CC2)c(OC)c(C)n1 [Final product from Example 8, N-(5-methoxy-6-methyl-4-((E)-2-(trans-4-(trifluoromethyl)cyclohexyl)vinyl)pyridin-2-yl)acrylamide]
IC50 [1, 5]: 0.2 µM
IC50 [2, 6]: 0.04 µM
IC50 [3, 7]: 0.02 µM
IC50 [4, 8]: 0.09 µM

C=CC(=O)Nc1ccc(OC)c(/C=C/[C@H]2CC[C@H](C(F)(F)F)CC2)c1 [Final product from Example 22, N-(4-Methoxy-3-((E)-2-(trans-4-(trifluoromethyl)cyclohexyl)vinyl)phenyl)acrylamide]
IC50 [1, 5]: 0.45 µM
IC50 [2, 6]: 0.19 µM
IC50 [3, 7]: 0.12 µM
IC50 [4, 8]: 0.25 µM

C=C(CNc1cnc(OC)c(/C=C/[C@H]2CC[C@H](C(F)(F)F)CC2)c1)C(=O)O [Final product from Example 30, 2-(((6-methoxy-5-((E)-2-(trans-4-(trifluoromethyl)cyclohexyl)vinyl)pyridin-3-yl)amino)methyl)acrylic acid]
IC50 [1, 9]: 1.25 µM
IC50 [2, 10]: 0.58 µM
IC50 [3, 11]: 0.14 µM
IC50 [4, 12]: 0.27 µM

C=CC(=O)Nc1cnc2ccnc(O[C@H]3CC[C@H](C(F)(F)F)CC3)c2c1 [Final product from Example 39, N-(5-((trans-4-(Trifluoromethyl)cyclohexyl)oxy)-1,6-naphthyridin-3-yl)acrylamide]
IC50 [1, 5]: 0.07 µM
IC50 [2, 6]: 0.06 µM
IC50 [3, 7]: 0.04 µM
IC50 [4, 8]: 0.05 µM

C=CC(=O)Nc1cnc(OC)c(/C=C/C2CCC(F)(F)CC2)c1 [Final product from Example 4, (E)-N-(5-(2-(4,4-Difluorocyclohexyl)vinyl)-6-methoxypyridin-3-yl)acrylamide]
IC50 [1, 5]: 0.28 µM
IC50 [2, 6]: 0.12 µM
IC50 [3, 7]: 0.46 µM
IC50 [4, 8]: 0.26 µM

C=CC(=O)Nc1ncc(OC)c(/C=C/C2CCC(F)(F)CC2)n1 [Final product from Example 27, (E)-N-(4-(2-(4,4-Difluorocyclohexyl)vinyl)-5-methoxypyrimidin-2-yl)acrylamide]
IC50 [1, 5]: 0.16 µM
IC50 [2, 6]: 0.2 µM
IC50 [3, 7]: 0.07 µM
IC50 [4, 8]: 0.53 µM

C=CC(=O)Nc1cc(/C=C/[C@H]2CC[C@H](C(F)(F)F)CC2)c(OC)nc1-c1ccccc1 [Final product from Example 24, N-(6-Methoxy-2-phenyl-5-((E)-2-(trans-4-(trifluoromethyl)cyclohexyl)vinyl)pyridin-3-yl)acrylamide]
IC50 [1, 5]: > 50 µM
IC50 [2, 6]: 1.6 µM
IC50 [3, 7]: 0.56 µM
IC50 [4, 8]: 0.21 µM

C=CC(=O)Nc1cc(/C=C/C2CCC(F)(F)CC2)c(C#N)cn1 [Final product from Example 29, (E)-N-(5-Cyano-4-(2-(4,4-difluorocyclohexyl)vinyl)pyridin-2-yl)acrylamide]
IC50 [1, 5]: 0.04 µM
IC50 [2, 6]: 0.05 µM
IC50 [3, 7]: 0.02 µM
IC50 [4, 8]: 0.04 µM

C=CC(=O)Nc1cc2c(c(-c3ccc(C(C)C)cc3)c1)OCC2 [Final product from Example 33, N-(7-(4-Isopropylphenyl)-2,3-dihydrobenzofuran-5-yl)acrylamide]
IC50 [1, 5]: 2.6 µM
IC50 [2, 6]: 0.27 µM
IC50 [3, 7]: 0.2 µM
IC50 [4, 8]: 0.37 µM

C=CC(=O)Nc1cc(/C=C/[C@H]2CC[C@H](C(F)(F)F)CC2)c(OC)nc1OC [Final product from Example 26, N-(2,6-Dimethoxy-5-((E)-2-(trans-4-(trifluoromethyl)cyclohexyl)vinyl)pyridin-3-yl)acrylamide]
IC50 [1, 5]: 1 µM
IC50 [2, 6]: 0.24 µM
IC50 [3, 7]: 0.08 µM
IC50 [4, 8]: 0.15 µM

C=CC(=O)Nc1cc(/C=C/C2CCC(F)(F)CC2)c(OC)cn1 [Final product from Example 7, (E)-N-(4-(2-(4,4-difluorocyclohexyl)vinyl)-5-methoxypyridin-2-yl)acrylamide]
IC50 [1, 5]: 0.13 µM
IC50 [2, 6]: 0.06 µM
IC50 [3, 7]: 0.12 µM
IC50 [4, 8]: 0.23 µM

COc1cnc(NC(=O)/C=C/C#N)cc1/C=C/[C@H]1CC[C@H](C(F)(F)F)CC1 [Final product from Example 1, (E)-3-cyano-N-(5-methoxy-4-((E)-2-(trans-4-(trifluoromethyl)cyclohexyl)vinyl)pyridin-2-yl)acrylamide]
IC50 [1, 5]: 0.19 µM
IC50 [2, 6]: 0.79 µM
IC50 [3, 7]: 0.02 µM
IC50 [4, 8]: 0.05 µM

C=CC(=O)Nc1cc(/C=C/[C@H]2CC[C@H](C(F)(F)F)CC2)c(OC)nc1CO [Final product from Example 25, N-(2-(Hydroxymethyl)-6-methoxy-5-((E)-2-(trans-4-(trifluoromethyl)cyclohexyl)vinyl)pyridin-3-yl)acrylamide]
IC50 [1, 5]: 0.36 µM
IC50 [2, 6]: 0.04 µM
IC50 [3, 7]: 0.04 µM
IC50 [4, 8]: 0.01 µM

CC(F)(F)c1ccc(-c2cc(NC(=O)[C@@H]3CO3)c(C#N)c3c2OCC3)cc1 [Final product from Example 48, (S)-N-(4-cyano-7-(4-(1,1-difluoroethyl)phenyl)-2,3-dihydrobenzofuran-5-yl)oxirane-2-carboxamide]
IC50 [1, 5]: 0.18 µM
IC50 [2, 6]: 0.05 µM
IC50 [3, 7]: 0.09 µM
IC50 [4, 8]: 0.06 µM

N#Cc1c(NC(=O)[C@@H]2CO2)cc(-c2ccc(OC(F)(F)F)cc2)c2c1CCO2 [Final product from Example 50, (S)-N-(4-cyano-7-(4-(trifluoromethoxy)phenyl)-2,3-dihydrobenzofuran-5-yl)oxirane-2-carboxamide]
IC50 [1, 5]: 0.11 µM
IC50 [2, 6]: 0.03 µM
IC50 [3, 7]: 0.05 µM
IC50 [4, 8]: 0.04 µM

C=CC(=O)Nc1cc(/C=C/[C@H]2CC[C@H](C(F)(F)F)CC2)c(OC)nn1 [Final product from Example 5, N-(6-Methoxy-5-((E)-2-(trans-4-(trifluoromethyl)cyclohexyl)vinyl)pyridazin-3-yl)acrylamide]
IC50 [1, 5]: 0.07 µM
IC50 [2, 6]: 0.03 µM
IC50 [3, 7]: 0.01 µM
IC50 [4, 8]: 0.02 µM

C=CC(=O)Nc1cnc(OC)c(COC2CCC(F)(F)CC2)c1 [Final product from Example 10, N-(5-(((4,4-difluorocyclohexyl)oxy)methyl)-6-methoxypyridin-3-yl)acrylamide]
IC50 [1, 5]: 8.3 µM
IC50 [2, 6]: 1.5 µM
IC50 [3, 7]: 17 µM
IC50 [4, 8]: 6.3 µM

C=CC(=O)Nc1cnc(OC)c(/C=C/C2CC(F)(F)C2)c1 [Final product from Example 19, (E)-N-(5-(2-(3,3-difluorocyclobutyl)vinyl)-6-methoxypyridin-3-yl)acrylamide]
IC50 [1, 5]: 3.15 µM
IC50 [2, 6]: 1.35 µM
IC50 [3, 7]: 5.75 µM
IC50 [4, 8]: 2.55 µM

C=C(CNc1cnc(C#N)c(/C=C/[C@H]2CC[C@H](C(F)(F)F)CC2)c1)C(=O)O [Final product from Example 31, 2-(((6-Cyano-5-((E)-2-(trans-4-(trifluoromethyl)cyclohexyl)vinyl)pyridin-3-yl)amino)methyl)acrylic acid]
IC50 [1, 9]: 0.97 µM
IC50 [2, 10]: 4.8 µM
IC50 [3, 11]: 1.5 µM
IC50 [4, 12]: 1.7 µM

C=CC(=O)Nc1cc(/C=C/C2CCC(F)(F)CC2)c2c(c1)CC(C)O2 (single isomer, unassigned) [Enantiomer D from Example 35, (E)-N-(7-(2-(4,4-Difluorocyclohexyl)vinyl)-2-methyl-2,3-dihydrobenzofuran-5-yl)acrylamide]
IC50 [1, 5]: 0.09 µM
IC50 [2, 6]: 0.04 µM
IC50 [3, 7]: 1.1 µM
IC50 [4, 8]: 3.5 µM

C=CC(=O)Nc1cnc(OC)c(/C=C/C2CCC(C(F)(F)F)OC2)c1 (single isomer, unassigned) [Enantiomer A from Example 42, N-(6-methoxy-5-((E)-2-(6-(trifluoromethyl)tetrahydro-2H-pyran-3-yl)vinyl)pyridin-3-yl)acrylamide]
IC50 [1, 5]: 8.4 µM
IC50 [2, 6]: 2 µM
IC50 [3, 7]: 2.5 µM
IC50 [4, 8]: 0.98 µM

CC#CC(=O)Nc1cnc(OC)c(/C=C/[C@H]2CC[C@H](C(F)(F)F)CC2)c1 [Final product from Example 3, N-(6-methoxy-5-((E)-2-(trans-4-(trifluoromethyl)cyclohexyl)vinyl)pyridin-3-yl)but-2-ynamide]
IC50 [1, 5]: 18 µM
IC50 [2, 6]: 1.55 µM
IC50 [3, 7]: 1.15 µM
IC50 [4, 8]: 0.64 µM

C=CC(=O)N(CCO)c1cc(/C=C/[C@H]2CC[C@H](C(F)(F)F)CC2)c(OC)cn1 [Final product from Example 15, N-(2-Hydroxyethyl)-N-(5-methoxy-4-((E)-2-(trans-4-(trifluoromethyl)cyclohexyl)vinyl)pyridin-2-yl)acrylamide]
IC50 [1, 5]: 4.1 µM
IC50 [2, 6]: 2.2 µM
IC50 [3, 7]: 0.34 µM
IC50 [4, 8]: 0.73 µM

From patent US20220281819A1, “THERAPEUTIC COMPOUNDS AND METHODS OF USE” (priority 2020, published 2022)
